# Results as given in paper PMC9415646, “Improving Aqueous Solubility and In Vitro Pharmacokinetic Properties of the 3-Nitroimidazo[1,2-a]pyridine Antileishmanial Pharmacophore” (Pharmaceuticals, 2022).
# Experiments:
# [1] = Redox potential of the nitro group by cyclic voltammetry; type: physicochemical; settings: cyclic voltammetry in DMSO, corrected versus NHE
# Experimental: Voltammetric measurements were carried out with a potentiostat Autolab PGSTAT100 (ECO Chemie, Utrecht, The Netherlands) controlled by GPES 4.09 software (ECO Chemie, Utrecht, The Netherlands). Experiments were performed at room temperature in a homemade airtight three–electrode cell connected to a vacuum/argon line. The reference electrode consisted of a saturated calomel electrode (SCE) separated from the solution by a bridge compartment. The counter electrode was a platinum wire of 1 cm^2 apparent surface. The working electrode was a GC microdisk (1.0 mm in diameter–Bio-logic SAS). The supporting electrolyte (nBu4N)[PF6] (Fluka, 99% puriss electrochemical grade) and the solvent DMSO (Sigma-Aldrich puriss p.a. dried <0.02% water) were used as received and simply degassed under argon. The solutions used during electrochemical analyses were typically 10^−3 M in compound and 0.1 M in supporting electrolyte. Before each measurement, the solutions were degassed by bubbling Ar, and the working electrode was polished with a polishing machine (Presi P230, Eybens, France). Under the experimental conditions adopted in this work, the half-wave potential (E1/2) of the ferrocene Fc+/Fc couple in DMSO was E1/2 = 0.45 V vs. SCE. Experimental peak potentials were measured versus SCE and converted to NHE by adding 0.241 V.
# [2] = Cytotoxicity evaluation on HepG2 cell line (MTT); type: cell-based; settings: human, HepG2 cells
# Experimental: The tested molecules’ cytotoxicity was assessed according to the method of Mosmann with slight modifications. […] Triplicate assays were performed for each sample. Each plate-well was then microscope-examined to detect possible precipitate formation before the medium was aspirated from the wells. 100 µL of MTT (3-(4,5-dimethyl-2-thiazolyl)-2,5-diphenyl-2H-tetrazolium bromide) solution (0.5 mg/mL in medium without FCS) were then added to each well. […] Plates were shaken vigorously (700 rpm) for 10 min. The absorbance was measured at 570 nm with 630 nm as reference wavelength using a BIO-TEK ELx808 Absorbance Microplate Reader. DMSO was used as blank and doxorubicin (purchased from Sigma Aldrich) as positive control. Cell viability was calculated as percentage of control (cells incubated without compound). […] (Palo Alto, CA, USA)). CC50 values represent the mean value calculated from three separate experiments.
# [3] = Cytotoxicity on THP-1 cell line (MTT); type: cell-based; settings: human, THP-1 cells, THP1 cell line
# Experimental: The plates were incubated for 72 h at 37 °C. Each well plate was then microscope-examined for detecting possible precipitate formation before the medium was aspirated from the wells. 100 µL of MTT solution (0.5 mg/mL in medium) were then added to each well. Cells were incubated for 2 h at 37 °C. […] Plates were shaken vigorously (300 rpm) for 10 min. The absorbance was measured at 570 nm using a BIO-TEK ELx808 Absorbance Microplate Reader. DMSO was used as blank and doxorubicin (purchased from Sigma Aldrich) as positive control. Cell viability was calculated as percentage of control (cells incubated with DMSO). […] (Palo Alto, CA, USA). CC50 values represent the mean value calculated from three separate experiments.
# [4] = Thermodynamic solubility at pH 7.4 (miniaturized shake-flask); type: physicochemical; settings: phosphate buffer (PBS), aqueous buffer, kinetic from dmso stock, pH 7.4, PBS, 23 °C
# Experimental: Thermodynamic solubility at pH 7.4 of compounds was determined according to a miniaturized shake-flask method (Organisation for Economic Cooperation and Development guideline n°105). Phosphate Buffer solutions (pH 7.4, […], ionic strength […]) were prepared from Na2HPO4, KH2PO4 and KCl (Sigma Aldrich, Saint Quentin Fallavier, France); 10 µL of 20 mM stock solution were added to 5 mL glass tubes containing […] buffer (n = 3). The tubes were briefly sonicated and shacked by inversion during 24 h at 23 °C. Then, the tube contents were placed in a microtube which was centrifuged at 12,225× g for 10 min; 100 µL supernatant were mixed with 100 µL acetonitrile in a Greiner UV microplate. Standard solutions were prepared extemporaneously, diluting 20 mM DMSO stock solutions at […]; 5 µL of each working solution were diluted with 995 µL buffer and 100 µL were then mixed in microplates with 100 µL acetonitrile so as to ensure that the final proportions of each solvent in standard solutions and samples remained unchanged. Solubility at pH 7.4 was determined with an Infinite M200Pro (Tecan, Lyon, France) microplate reader in spectrophotometric mode (230 to 450 nm) from the specific λmax of each compound. The calibration curve was obtained from the […] standard solutions of tested compounds at 0, 25, 50, and 100 µM in a 50:50 (vol/vol) mixture of buffer with acetonitrinile/DMSO (99:1; vol/vol). Calibration curves were linear with R^2 > 0.99.
# [5] = Mouse microsomal stability; type: in vitro ADME; settings: female, CD-1, pH 7.4; mouse liver microsomes; read-out: Mouse Microsomal Stability T1/2
# Experimental: The tested product and propranolol, used as reference, were incubated in duplicate (reaction volume of 0.5 mL) with female mouse microsomes (CD-1, 20 mg/mL, BD Gentest™) at 37 °C in a 50 mM phosphate buffer, pH 7.4, in the presence of MgCl2 (5 mM), NADP (1 mM), glucose-6-phosphate dehydrogenase (0.4 U/mL) and glucose-6-phosphate (5 mM). […] After centrifugation at 10,000× g, 10 min, 4 °C, the supernatants were maintained at 4 °C for immediate analysis or placed at -80 °C for later analysis. Controls (t0 and tfinal) in triplicate were prepared by incubation of the internal standard with microsomes denatured by acetonitrile. […] The mobile phases were (A) ammonium acetate 10 mM and (B) acetonitrile with 0.1% formic acid. The injection volume was 1 µL and the flow rate 600 µL/min. […] Each compound was quantified by converting the average of the ratios of the analyte/internal standard surfaces to the percentage of product consumed. The ratio of the control at t0 corresponded to 0% of product consumed. The half-life (T1/2) of each compound in the presence of microsomes was calculated according to the equation: t1/2=ln(2)/k , where k is the first-order degradation constant (the slope of the logarithm of compound concentration versus incubation time). The intrinsic clearance in vitro (Clint expressed in μL/min/mg) is calculated according to the equation: Clint=dose/AUC∞/[microsomes] where “dose” is the initial concentration of product in the sample, AUC∞ is the area under the concentration-time curve extrapolated to infinity and [microsomes] is the microsome concentration expressed in mg/µL.
# [6] = Parallel artificial membrane permeability assay (PAMPA); type: in vitro ADME; settings: for Papp at 4 h, 100 µM: PAMPA, pH 7.4, read-out: PAMPA GIT at pH 7.4 Pe
SMILES,E0 (redox potential of the nitro group) [1],CC50 at 72 h [2],CC50 at 72 h [3],solubility thermodynamic at 24 h [4],half-life [5],PAMPA GIT at pH 7.4 Pe [6],"Papp at 4 h, 100 µM [6]"
"O=[N+]([O-])c1c(CS(=O)(=O)c2ccc(OC(F)(F)F)cc2)nc2c(Br)cc(Cl)cn12 [Compound 2f, 8-Bromo-6-Chloro-3-Nitro-2-[(4-Trifluoromethoxyphenylsulfonyl)methyl]imidazo[1,2-a] pyridine]",−0.62 V,> 25 µM,> 100 µM,8.6 ± 2.3 µM,,,
"COc1ccc(S(=O)(=O)Cc2nc3c(Br)cc(Cl)cn3c2[N+](=O)[O-])cc1 [Compound 2g, 8-Bromo-6-Chloro-2-[(4-Methoxyphenylsulfonyl)methyl]-3-Nitroimidazo[1,2-a]pyridine]",−0.64 V,3.9 ± 1.3 µM,> 100 µM,5.7 ± 1.3 µM,,,
"O=[N+]([O-])c1c(CS(=O)(=O)c2ccc(O)cc2)nc2c(Sc3ccc(Cl)cc3)cc(Cl)cn12 [Compound 3a, 4-{[(6-Chloro-8-[(4-Chlorophenyl)thio]-3-Nitroimidazo[1,2-a]pyridin-2-yl)methyl]sulfonyl}phenol]",,22.3 ± 2.5 µM,28.2 ± 0.1 µM,,,,
"O=[N+]([O-])c1c(CS(=O)(=O)c2ccc(Cl)cc2)nc2c(Sc3ccc(Cl)cc3)cc(Cl)cn12 [Compound 3b, 6-Chloro-2-[(4-Chlorophenylsulfonyl)methyl]-8-[(4-Chlorophenyl)thio]-3-Nitroimidazo[1,2-a]pyridine]",−0.68 V,8.9 ± 1.3 µM,> 15.6 µM,< 2 µM,4.5 min,,
"O=[N+]([O-])c1c(CS(=O)(=O)c2ccc(F)cc2)nc2c(Sc3ccc(Cl)cc3)cc(Cl)cn12 [Compound 3c, 6-Chloro-8-[(4-Chlorophenyl)thio]-2-[(4-Fluorophenylsulfonyl)methyl]-3-Nitroimidazo[1,2-a]pyridine]",−0.61 V,> 15.6 µM,> 100 µM,< 2 µM,5.7 min,,
"O=[N+]([O-])c1c(CS(=O)(=O)c2ccc(C(F)(F)F)cc2)nc2c(Sc3ccc(Cl)cc3)cc(Cl)cn12 [Compound 3d, 6-Chloro-8-[(4-Chlorophenyl)thio]-3-Nitro-2-[(4-Trifluoromethylphenylsulfonyl)methyl]imidazo[1,2-a]pyridine]",−0.56 V,> 3.9 µM,> 50 µM,2.5 ± 0.7 µM,,,
"O=[N+]([O-])c1c(CS(=O)(=O)c2ccc(OC(F)(F)F)cc2)nc2c(Sc3ccc(Cl)cc3)cc(Cl)cn12 [Compound 3e, 6-Chloro-8-[(4-Chlorophenyl)thio]-3-Nitro-2-[(4-Trifluoromethoxyphenylsulfonyl)methyl]imidazo[1,2-a]pyridine]",−0.66 V,> 12.5 µM,> 100 µM,64.7 ± 7.3 µM,,,
"COc1ccc(S(=O)(=O)Cc2nc3c(Sc4ccc(Cl)cc4)cc(Cl)cn3c2[N+](=O)[O-])cc1 [Compound 3f, 6-Chloro-8-[(4-Chlorophenyl)thio]-2-[(4-Methoxyphenylsulfonyl)methyl]-3-Nitroimidazo[1,2-a]pyridine]",−0.66 V,> 3.9 µM,> 50 µM,< 2 µM,,,
"O=[N+]([O-])c1c(CS(=O)(=O)C2CC2)nc2c(Sc3ccc(Cl)cc3)cc(Cl)cn12 [Compound 3h, 6-Chloro-8-[(4-Chlorophenyl)thio]-2-[(cyclopropylsulfonyl)methyl]-3-Nitroimidazo[1,2-a]pyridine]",−0.65 V,22.3 ± 2.5 µM,> 62.5 µM,3 ± 0.4 µM,,,
"O=[N+]([O-])c1c(CS(=O)(=O)CCC(F)(F)F)nc2c(Sc3ccc(Cl)cc3)cc(Cl)cn12 [Compound 3i, 6-Chloro-8-[(4-Chlorophenyl)thio]-3-Nitro-2-[(3,3,3-Trifluoropropylsulfonyl)methyl]imidazo[1,2-a]pyridine]",−0.64 V,> 6.2 µM,> 50 µM,12.4 ± 3 µM,9.1 min,6.3 nm/s,0.63 ± 0.08 ×10⁻⁶ cm/s
"O=[N+]([O-])c1c(CS(=O)(=O)CCC(F)(F)F)nc2c(S(=O)(=O)c3ccc(Cl)cc3)cc(Cl)cn12 [Compound 6b, 6-Chloro-8-[(4-Chlorophenyl)sulfonyl]-3-Nitro-2-[(3,3,3-Trifluoropropylsulfonyl)methyl] imidazo[1,2-a]pyridine]",,> 10 µM,> 100 µM,,7.9 min,,
"O=[N+]([O-])c1c(CS(=O)(=O)CCC(F)(F)F)nc2c(-c3ccncc3)cc(Cl)cn12 [Compound 7, 6-Chloro-3-Nitro-8-(Pyridin-4-yl)-2-[(3,3,3-Trifluoropropylsulfonyl)methyl]imidazo[1,2-a]pyridine]",−0.61 V,> 100 µM,> 100 µM,31.1 ± 3.7 µM,> 40 min,,31.4 ± 8.72 ×10⁻⁶ cm/s
"CSc1ccc(OCc2ncc([N+](=O)[O-])n2C)cc1 [Fexinidazole, reference compound]",−0.83 V,> 100 µM,> 100 µM,,,,
"O=[N+]([O-])c1c(CS(=O)(=O)c2ccccc2)nc2c(Br)cc(Cl)cn12 [Hit A, 8-Bromo-6-chloro-3-nitro-2-(phenylsulfonylmethyl)imidazo[1,2-a]pyridine, reference compound]",−0.65 V,> 15.6 µM,> 100 µM,6.9 ± 1.5 µM,11 min,173.2 nm/s,17.3 ± 3.88 ×10⁻⁶ cm/s
